As a reminder, the IC50 is the point on the concentration scale where inhibition reaches its midpoint.

Molecules are shown by their SMILES. Read-outs that look alike come from different tables or passages of the source. Where a SMILES comes first, the peptide text is derived from it. The star is where a group is joined. 3Phenanthroyl(9,10-dioxo) = O=C1C(=O)c2ccc(C(=O)*)cc2-c2ccccc21

Here are results for 23 molecules from US20030207812A1, “Cd45 inhibitors” (priority 2002, published 2003).

The target of data set [1] is T1, CD45 (Homo sapiens, UniProt P08575).
T1 construct: incubating the cytosolic portion of CD45 with the compounds and p-nitrophenyl phosphate (pNPP); purchased BIOMOL (Plymouth Meeting, Pa.)
T1 sequence (P08575 599-1306 limits assumed): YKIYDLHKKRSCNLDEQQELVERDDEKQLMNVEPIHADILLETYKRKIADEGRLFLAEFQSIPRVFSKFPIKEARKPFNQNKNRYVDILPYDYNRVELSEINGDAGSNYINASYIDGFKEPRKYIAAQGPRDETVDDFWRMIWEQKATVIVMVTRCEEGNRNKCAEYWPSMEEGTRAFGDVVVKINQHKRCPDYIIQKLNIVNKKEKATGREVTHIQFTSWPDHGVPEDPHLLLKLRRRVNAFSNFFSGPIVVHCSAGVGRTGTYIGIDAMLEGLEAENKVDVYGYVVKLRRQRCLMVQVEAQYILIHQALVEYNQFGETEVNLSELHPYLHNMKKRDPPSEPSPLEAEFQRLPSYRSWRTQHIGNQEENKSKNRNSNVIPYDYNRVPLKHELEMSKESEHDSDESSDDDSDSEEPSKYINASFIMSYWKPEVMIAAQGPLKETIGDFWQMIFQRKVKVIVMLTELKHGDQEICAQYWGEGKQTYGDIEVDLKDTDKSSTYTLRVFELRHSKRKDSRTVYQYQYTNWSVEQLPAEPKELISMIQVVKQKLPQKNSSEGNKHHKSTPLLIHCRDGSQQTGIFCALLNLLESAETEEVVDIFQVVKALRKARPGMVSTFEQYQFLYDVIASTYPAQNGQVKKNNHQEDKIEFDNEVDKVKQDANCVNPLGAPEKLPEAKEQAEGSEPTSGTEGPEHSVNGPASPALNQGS
Put plainly: Phosphatase assay using pNPP as substrate. The format is biochemical. As to conditions: read-out: pNPP IC50. The procedure:
Phosphatase assay using pNPP as substrate:
CD45 enzyme was obtained from BIOMOL (Plymouth Meeting, Pa.). Phosphatase activity was assayed in a buffer containing final concentrations of 25 mM imidazole at pH 7.0, 50 mM NaCl, 2.5 mM ethylenediaminetetraacetic acid (“EDTA”), 5 mM dithiothreitol (“DTT”) and 10 μg/mL bovine serum albumin (“BSA”) using pNPP as a substrate.

For data set [2], the target named is T1, CD45. The data set can be described thus: Phosphatase assay using lck 10-mer as substrate. The format is biochemical. A digest of the protocol:
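Enzyme incubated with lck phosphopeptide TEGQpYQPQP for 1.5 h at room temperature in 25 mM HEPES pH 7.2, 5 mM DTT, 10 μg/mL BSA, 5% DMSO final. Compounds tested from 30 to 0.01 μM. Released phosphate detected with malachite-type Green Reagent, absorbance at 620 nm after 30 min.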

The next data set is described as follows: in vitro. The conditions noted are these: human.
The test system of a further data set is T cells (PBMC). Put plainly: cells. The format is cell-based, human. The conditions noted are these: read-out: T cell prolif. IC50.
The nature of data set [3]: Cytotoxicity assay (Calcein-AM uptake). The conditions noted are these: human, PHA-expanded T-cell lymphoblasts from PBMC.
The mark [4] stands for this setting: CD45 phosphatase, pNPP substrate, pH 7.0.
[5] abbreviates: CD45 phosphatase, lck carboxy-terminal peptide TEGQpYQPQP substrate, pH 7.2, read-out: Ick IC50.
Where [6] appears, read: human PBMC, OKT3 30 ng/mL, [3H]thymidine.

In the case of `NC(=O)CC[C@H](NC(=O)[C@@H]1CCCN1C(=O)[C@H](CCC(N)=O)NC(=O)[C@H](CCC(=O)O)NC(=O)c1ccc2c(c1)-c1ccccc1C(=O)C2=O)C(=O)N1CCC[C@H]1C(=O)O` [Example 24] ({3Phenanthroyl(9,10-dioxo)}-EQPQP-OH), the results for the IC50 on CD45 [1] (pH 7) and against CD45 [2] were 600 nM and 2400 nM, respectively. In “in vitro”, this molecule came in with a CC50 of over 30000 nM.

Regarding `NC(=O)CC[C@H](NC(=O)[C@@H]1CCCN1C(=O)[C@H](CCC(N)=O)NC(=O)CNC(=O)c1ccc2c(c1)-c1ccccc1C(=O)C2=O)C(=O)N1CCC[C@H]1C(=O)O` [Example 25] ({3Phenanthroyl(9,10-dioxo)}-GQPQP-OH), the IC50 came out at 1200 nM on CD45 [1] (pH 7) and 2500 nM against CD45 [2]. In addition, the CC50 in the data set “in vitro” is over 30000 nM.

On to `NC(=O)CC[C@H](NC(=O)c1ccc2c(c1)-c1ccccc1C(=O)C2=O)C(=O)N[C@@H](CCC(N)=O)C(=O)N1CCC[C@H]1C(=O)N[C@@H](CCC(N)=O)C(=O)N1CCC[C@H]1C(=O)O` [Example 26] ({3Phenanthroyl(9,10-dioxo)}-QQPQP-OH), for which the IC50 came out at 700 nM at CD45 [1] (pH 7) and 2300 nM at CD45 [2]. Besides, the CC50 in “in vitro” was over 30000 nM.

On to `NC(=O)CC[C@H](NC(=O)[C@@H]1CCCN1C(=O)[C@H](CCC(=O)O)NC(=O)CNC(=O)c1ccc2c(c1)-c1ccccc1C(=O)C2=O)C(=O)N1CCC[C@H]1C(=O)O` [Example 27] ({3Phenanthroyl(9,10-dioxo)}-GEPQP-OH), for which the values for the IC50 on CD45 [1] (pH 7) and at CD45 [2] were 700 nM and 3100 nM, respectively. In addition, the CC50 in the data set “in vitro” was over 30000 nM.

Turning to `NC(=O)CC[C@H](NC(=O)c1ccc2c(c1)-c1ccccc1C(=O)C2=O)C(=O)N[C@@H](CCC(=O)O)C(=O)N1CCC[C@H]1C(=O)N[C@@H](CCC(N)=O)C(=O)N1CCC[C@H]1C(=O)O` [Example 28] ({3Phenanthroyl(9,10-dioxo)}-QEPQP-OH), the IC50 at CD45 [1] (pH 7) amounted to 1100 nM; at CD45 [2], 2200 nM. Moreover, the CC50 in “in vitro” is over 30000 nM.

In the case of `NC(=O)CC[C@H](NC(=O)CNC(=O)c1ccc2c(c1)-c1ccccc1C(=O)C2=O)C(=O)NCC(=O)N[C@@H](CCC(N)=O)C(=O)N1CCC[C@H]1C(=O)O` [Example 29] ({3Phenanthroyl(9,10-dioxo)}-GQGQP-OH), the IC50 is 1100 nM on CD45 [1] (pH 7) and 2500 nM against CD45 [2]. In addition, the CC50 in the data set “in vitro” is over 30000 nM.

For the molecule `NC(=O)CC[C@H](NC(=O)c1ccc2c(c1)-c1ccccc1C(=O)C2=O)C(=O)N[C@@H](CCC(N)=O)C(=O)NCC(=O)N[C@@H](CCC(N)=O)C(=O)N1CCC[C@H]1C(=O)O` [Example 30] ({3Phenanthroyl(9,10-dioxo)}-QQGQP-OH), the results for the IC50 on CD45 [1] (pH 7) and at CD45 [2] were 900 nM and 1700 nM, respectively. Moreover, the CC50 in the data set “in vitro” was over 30000 nM.

Consider `NC(=O)CC[C@H](NC(=O)[C@H](CCC(=O)O)NC(=O)c1ccc2c(c1)-c1ccccc1C(=O)C2=O)C(=O)NCC(=O)N[C@@H](CCC(N)=O)C(=O)N1CCC[C@H]1C(=O)O` [Example 31] ({3Phenanthroyl(9,10-dioxo)}-EQGQP-OH), for which the IC50 came to 600 nM on CD45 [1] (pH 7) and 2500 nM at CD45 [2]. In “in vitro”, this molecule yielded a CC50 of over 30000 nM.

`NC(=O)CC[C@H](NC(=O)CNC(=O)[C@H](CCC(=O)O)NC(=O)CNC(=O)c1ccc2c(c1)-c1ccccc1C(=O)C2=O)C(=O)N1CCC[C@H]1C(=O)O` [Example 32] ({3Phenanthroyl(9,10-dioxo)}-GEGQP-OH): the IC50 on CD45 [1] (pH 7) turned out to be 700 nM; against CD45 [2], 2300 nM. The molecule further had a CC50 in “in vitro” of over 30000 nM.

In the case of `NC(=O)CC[C@H](NC(=O)c1ccc2c(c1)-c1ccccc1C(=O)C2=O)C(=O)N[C@@H](CCC(=O)O)C(=O)NCC(=O)N[C@@H](CCC(N)=O)C(=O)N1CCC[C@H]1C(=O)O` [Example 33] ({3Phenanthroyl(9,10-dioxo)}-QEGQP-OH), the IC50 at CD45 [1] (pH 7) turned out to be 1100 nM; against CD45 [2], 2500 nM. Also, in the data set “in vitro”, the CC50 is over 30000 nM.

Regarding `NC(=O)CC[C@H](NC(=O)CNC(=O)c1ccc2c(c1)-c1ccccc1C(=O)C2=O)C(=O)NCC(=O)N[C@@H](CCC(=O)O)C(=O)N1CCC[C@H]1C(=O)O` [Example 35] ({3Phenanthroyl(9,10-dioxo)}-GQGEP-OH), the IC50 was found to be 900 nM at CD45 [1] (pH 7) and 1400 nM at CD45 [2]. For the same molecule, the CC50 in the data set “in vitro” was over 30000 nM.

As to `Nc1cccc2c1-c1ccccc1C(=O)C2=O` [Example 89, 4-Amino-phenanthrene-9,10-dione], the IC50 on CD45 [1] (setting [4]) was 800 nM; at CD45 [2] (setting [5]), 2900 nM; with T cells (PBMC) (setting [6]) it was 200 nM. Moreover, in data set [3], the CC50 was 9000 nM.

Take `COC(=O)CCC(=O)Nc1cccc2c1C(=O)C(=O)c1ccccc1-2` [Example 91, N-(9,10-Dioxo-9,10-dihydro-phenanthren-1-yl)-succinamic Acid Methyl Ester]: the IC50 is 400 nM on CD45 [1] (setting [4]), 4700 nM at CD45 [2] (setting [5]) and 500 nM in the data set on T cells (PBMC) (setting [6]). In addition, the CC50 in data set [3] is 9000 nM.

For `O=C1C(=O)c2cc([N+](=O)[O-])ccc2-c2ccccc21` [Example 92, 2-Nitro-phenanthrene-9,10-dione], the figures for the IC50 at CD45 [1] (setting [4]), on CD45 [2] (setting [5]) and in the data set with T cells (PBMC) (setting [6]) were 2400 nM, 5400 nM and 1600 nM, respectively. The CC50 in data set [3] was 10000 nM.

Take `O=C1C(=O)c2cc([N+](=O)[O-])ccc2-c2ccc([N+](=O)[O-])cc21` [Example 94, 2,7-Dinitro-phenanthrene-9,10-dione]: the IC50 at CD45 [1] (setting [4]) amounted to 4100 nM; at CD45 [2] (setting [5]), 5000 nM; with T cells (PBMC) (Homo sapiens), 500 nM. Also, the CC50 in data set [3] was 8000 nM.

In the case of `O=C1C(=O)c2cc(Br)ccc2-c2ccccc21` [Example 96, 2-Bromo-phenanthrene-9,10-dione], the figures for the IC50 at CD45 [1] (setting [4]), on CD45 [2] (setting [5]) and in the data set with T cells (PBMC) (setting [6]) were 370 nM, 3100 nM and 600 nM, respectively. In addition, the CC50 in data set [3] was 5000 nM.

As to `O=C(O)c1ccc2c(c1)C(=O)C(=O)c1ccccc1-2` [Example 97, 9,10-Dioxo-9,10-dihydro-phenanthrene-2-carboxylic Acid], the results for the IC50 on CD45 [1] (setting [4]), at CD45 [2] (setting [5]) and in the data set with T cells (PBMC) (setting [6]) were 1000 nM, 3300 nM and over 30000 nM, respectively. Besides, in data set [3], the CC50 is over 30000 nM.

As for `O=C1C(=O)c2ccc([N+](=O)[O-])cc2-c2ccccc21` [Example 99, 3-Nitro-phenanthrene-9,10-dione], the IC50 at CD45 [1] (setting [4]) came out at 500 nM; on CD45 [2] (setting [5]), 4900 nM; with T cells (PBMC) (setting [6]), 200 nM. Moreover, in data set [3], the CC50 is 2800 nM.

Take `CC(=O)c1ccc2c(c1)-c1ccccc1C(=O)C2=O` [Example 100, 3-Acetyl-phenanthrene-9,10-dione]: the IC50 was 800 nM on CD45 [1] (setting [4]), 4200 nM at CD45 [2] (setting [5]) and 800 nM with T cells (PBMC) (setting [6]). Besides, the CC50 in data set [3] was 3500 nM.

Regarding `CC(=O)c1ccc2c(c1)C(=O)C(=O)c1ccccc1-2` [Example 101, 2-Acetyl-phenanthrene-9,10-dione], the IC50 worked out at 800 nM on CD45 [1] (setting [4]), 2900 nM at CD45 [2] (setting [5]) and 1100 nM in the data set on T cells (PBMC) (setting [6]). In addition, the CC50 in data set [3] is 4500 nM.

Regarding `CC(C)(C)OC(=O)CNC(=O)c1ccc2c(c1)C(=O)C(=O)c1ccccc1-2` [Example 103, [(9,10-Dioxo-9,10-dihydro-phenanthrene-2-carbonyl)-amino]-acetic acid tert-butyl ester], the IC50 on CD45 [1] (setting [4]) turned out to be 600 nM; at CD45 [2] (setting [5]), 4900 nM; with T cells (PBMC) (setting [6]), 400 nM. Also, in data set [3], the CC50 was 10000 nM.

Turning to `O=C(O)CNC(=O)c1ccc2c(c1)-c1ccccc1C(=O)C2=O` [Example 104, [(9,10-dioxo-9,10-dihydro-phenanthrene-3-carbonyl)-amino]-acetic acid], the IC50 on CD45 [1] (setting [4]) was found to be 500 nM; at CD45 [2] (setting [5]) it was 3400 nM; in the data set with T cells (PBMC) (setting [6]) it was 6500 nM. For the same molecule, the CC50 in data set [3] is over 30000 nM.

With `O=C(O)CNC(=O)c1ccc2c(c1)C(=O)C(=O)c1ccccc1-2` [Example 105, [(9,10-Dioxo-9,10-dihydro-phenanthrene-2-carbonyl)-amino]-acetic acid], the IC50 was 800 nM on CD45 [1] (setting [4]), 2200 nM at CD45 [2] (setting [5]) and 4400 nM in the data set with T cells (PBMC) (setting [6]). In data set [3], the CC50 was over 30000 nM.
